Laboratory results published in publication PMC2900413 (Biochemical pharmacology, 2010).
Entries after “also recorded” stand apart in the source; their conditions may differ.

Tests used:
[1] = target: A2AAR; conditions: read-out: Ki, radioligand binding; reported values; ref [1], [27], [28], [29]; cited from earlier work
[2] = target: T1, A1 AR (Homo sapiens, UniProt P30542); experiment: Radioligand membrane binding assay at the A1 AR with [3H]R-PIA
T1 sequence (P30542 1-326): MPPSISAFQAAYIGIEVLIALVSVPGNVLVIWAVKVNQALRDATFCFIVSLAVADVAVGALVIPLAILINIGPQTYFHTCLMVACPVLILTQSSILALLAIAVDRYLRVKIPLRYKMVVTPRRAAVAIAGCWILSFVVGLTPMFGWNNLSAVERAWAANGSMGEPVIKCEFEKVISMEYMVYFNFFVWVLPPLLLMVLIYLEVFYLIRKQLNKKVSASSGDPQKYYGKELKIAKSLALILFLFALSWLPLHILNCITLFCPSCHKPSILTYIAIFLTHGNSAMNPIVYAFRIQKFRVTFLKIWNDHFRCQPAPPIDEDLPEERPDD

[3] = target: T2, A3 AR (Homo sapiens, UniProt P0DMS8); experiment: Radioligand membrane binding assay at the A3 AR with [125I]AB-MECA
T2 sequence (P0DMS8 1-318): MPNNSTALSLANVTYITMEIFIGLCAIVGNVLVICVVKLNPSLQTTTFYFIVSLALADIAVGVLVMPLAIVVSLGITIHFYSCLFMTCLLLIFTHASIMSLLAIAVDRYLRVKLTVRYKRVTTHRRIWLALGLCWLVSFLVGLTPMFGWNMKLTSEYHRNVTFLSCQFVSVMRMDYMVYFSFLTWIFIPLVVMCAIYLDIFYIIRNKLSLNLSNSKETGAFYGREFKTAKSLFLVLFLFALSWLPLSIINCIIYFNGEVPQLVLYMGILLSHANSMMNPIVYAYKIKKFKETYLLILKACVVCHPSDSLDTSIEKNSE

[4] = target: T3, A2B AR (Homo sapiens, UniProt P29275); experiment: Cyclic AMP accumulation assay, CHO cells expressing the A2B AR; assay type: cell-based; conditions: at 10 μM
T3 sequence (P29275 1-332): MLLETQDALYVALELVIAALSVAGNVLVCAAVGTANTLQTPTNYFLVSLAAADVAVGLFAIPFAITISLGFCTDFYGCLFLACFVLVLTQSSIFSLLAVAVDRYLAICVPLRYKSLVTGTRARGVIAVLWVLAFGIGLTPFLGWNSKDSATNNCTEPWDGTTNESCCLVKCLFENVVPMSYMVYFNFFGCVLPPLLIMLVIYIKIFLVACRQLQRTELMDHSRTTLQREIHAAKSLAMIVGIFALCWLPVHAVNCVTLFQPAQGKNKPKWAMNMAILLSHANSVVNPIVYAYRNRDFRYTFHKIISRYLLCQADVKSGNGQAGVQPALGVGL

[5] = target: A2AAR (Homo sapiens, UniProt P29274); experiment: Cyclic AMP accumulation assay, CHO cells expressing the A2AAR; conditions: CGS21680-induced cyclic AMP accumulation in CHO cells expressing the A2AAR
A2AAR (Homo sapiens, UniProt P29274), sequence (P29274 whole entry): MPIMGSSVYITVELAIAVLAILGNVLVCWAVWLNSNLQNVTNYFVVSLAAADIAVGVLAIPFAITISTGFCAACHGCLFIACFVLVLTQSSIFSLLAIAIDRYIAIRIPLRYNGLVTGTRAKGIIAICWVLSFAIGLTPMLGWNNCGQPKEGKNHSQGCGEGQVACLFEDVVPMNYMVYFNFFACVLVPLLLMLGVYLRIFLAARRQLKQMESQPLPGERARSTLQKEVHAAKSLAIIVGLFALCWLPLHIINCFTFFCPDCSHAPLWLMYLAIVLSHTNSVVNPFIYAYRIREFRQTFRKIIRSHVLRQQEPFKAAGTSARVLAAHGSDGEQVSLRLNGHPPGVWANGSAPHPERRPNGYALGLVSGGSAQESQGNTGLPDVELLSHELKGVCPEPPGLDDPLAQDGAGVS

Structure (SMILES)	Ki [1]	effect on A1 AR in binding ([2]; at 10 μM)	inhibition at 10 µM ([2]; read-out: inhibition of radioligand binding at A1 AR)	effect on A3 AR in binding ([3]; at 10 μM)	inhibition at 10 µM ([3]; read-out: inhibition of radioligand binding at A3 AR)	effect on NECA-induced cyclic AMP accumulation [4]	functional activity in cyclic AMP assay at the A2AAR [5]
OC[C@H]1O[C@@H](n2cnc3c(NC4CCCC4)ncnc32)[C@H](O)[C@@H]1O [CPA]	794 nM	–	–	–	–	–	–
N=c1ccc2c(-c3ccc(C(=O)NCCNC(=O)COc4ccc(CCCn5ncc6c5nc(N)n5nc(-c7ccco7)nc65)cc4)cc3C(=O)O)c3ccc(N)c(S(=O)(=O)O)c3oc-2c1S(=O)(=O)O [MRS5346, 5-((2-(2-(4-(3-(5-amino-2-(furan-2-yl)-7H-pyrazolo[4,3-e][1,2,4]triazolo[1,5-c]pyrimidin-7-yl)propyl)phenoxy)acetamido)-ethyl)-carbamoyl)-2-(6-amino-3-iminio-4,5-disulfonato-3H-xanthen-9-yl)benzoate]	–	did not show any effect	4.6 ± 1.9%	did not show any effect	3.8 ± 2.1%	did not show any effect; also recorded: did not inhibit	antagonist; also recorded: inhibited cyclic AMP accumulation
